We go through five molecules from patent US20080096807A1, “Cyclic vasoactive intestinal peptide receptor-2 agonists” (priority 2006, published 2008).

The test system of data set [1] is methacholine-induced bronchospasm in mice. The experiment in a line: Methacholine-induced bronchospasm in mice (whole body plethysmography, Penh). Type of data set: in vivo. Particulars: balb/c mice; drug by aerosol for 20 minutes before spasmogen challenge; relative to vehicle. The protocol:
Respiratory function is measured in conscious, freely moving mice using whole body plethysmographs (WBP) from BUXCO Electronics, Inc. (Troy, N.Y.). WBP chambers allow animals to move freely within the chamber while respiratory function is measured. Eight chambers are used simultaneously so that eight mice can be measured at the same time. Each WBP chamber is connected to a bias flow regulator to supply a smooth, constant flow of fresh air during testing. A transducer attached to each chamber detects pressure changes that occur as the animal breathes. Pressure signals are amplified by a MAX II Strain Gauge preamplifier and analyzed by the Biosystem XA software supplied with the system (BUXCO Electronics, Inc.). Pressure changes within each chamber are calibrated prior to testing by injecting exactly 1 ml of air through the injection port and adjusting the computer signal accordingly. Mice are placed in the WBP chambers and allowed to acclimate for 10 minutes prior to testing. Testing is conducted by letting the animals move and breathe freely for 15 minutes while the following parameters are measured: Tidal Volume (ml), Respiratory Rate (breaths per minutes), Minute Volume (tidal volume multiplied by respiratory rate, ml/min), Inspiratory Time (sec), Expiratory Time (sec), Peak Inspiratory Flow (ml/sec), and Peak Expiratory Flow (ml/sec). Raw data for each of the parameters listed above are captured in the software database and averaged once per minute to give a total of 15 data points per parameter. The average of the 15 data points is reported. Accumulated Volume (ml) is a cumulative value (not averaged) and represents the sum of all tidal volumes for the 15-minute test session. The protocol is customized to include measurements before, during, and after a spasmogen challenge to determine Penh. Dose-response effects of a particular spasmogen (i.e. methacholine (MCh), acetylcholine, etc.) are obtained by giving nebulized aerosol (30-60 sec exposure) at approximately 5-10 min intervals. Mice (balb/c) are treated with vehicle (2% DMSO in H2O) or drug dissolved in 4 ml vehicle for 20 minutes by aerosol, as described above, prior to spasmogen challenge. Penh is determined at 5, 30 and 60 minutes post-challenge. Data are reported as percent inhibition of Penh relative to vehicle.

In data set [2] the target is T1, human neutrophil elastase (Homo sapiens, UniProt P08246).
T1 sequence (P08246 30-247 limits assumed): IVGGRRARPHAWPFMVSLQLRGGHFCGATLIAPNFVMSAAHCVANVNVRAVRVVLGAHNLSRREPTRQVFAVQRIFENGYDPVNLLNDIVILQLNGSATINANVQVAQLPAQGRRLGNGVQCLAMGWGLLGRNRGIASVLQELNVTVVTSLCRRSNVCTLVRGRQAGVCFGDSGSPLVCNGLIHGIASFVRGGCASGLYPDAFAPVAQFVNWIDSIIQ
In words: Peptide stability to neutrophil elastase (RP HPLC ESI MS). To be noted: halftime with human neutrophil elastase 1 to 2 μg/mL in PBS, ambient temperature, normalized to halftime of the reference standard.

Data set [3] has as its target T2, VPAC2 receptor (Homo sapiens, UniProt P41587).
T2 construct: The human T-lymphoid cell line Sup-Ti, which expresses the VPAC2 receptor; host or cells: Sup-T1 (Sup-Ti [sic]) human T-lymphoid cell line
T2 sequence (P41587 24-438): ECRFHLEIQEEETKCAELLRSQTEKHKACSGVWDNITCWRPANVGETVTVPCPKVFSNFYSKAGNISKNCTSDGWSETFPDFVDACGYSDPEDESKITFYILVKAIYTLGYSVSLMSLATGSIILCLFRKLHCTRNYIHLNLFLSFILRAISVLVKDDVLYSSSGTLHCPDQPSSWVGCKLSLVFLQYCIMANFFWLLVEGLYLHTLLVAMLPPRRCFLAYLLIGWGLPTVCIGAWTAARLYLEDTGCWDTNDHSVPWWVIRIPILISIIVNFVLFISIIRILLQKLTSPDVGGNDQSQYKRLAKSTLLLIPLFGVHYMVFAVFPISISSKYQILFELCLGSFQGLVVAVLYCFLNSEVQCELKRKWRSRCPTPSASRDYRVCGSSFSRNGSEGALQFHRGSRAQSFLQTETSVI
In words: Sup-T1 cAMP agonist assay. It is filed as cell-based. To be noted: human T-lymphoid cell line Sup-T1 expressing VPAC2 receptor; cAMP EIA; 5 min at room temperature; read-out: Sup-T1 cAMP EC50. The method in brief: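 Sup-T1 human T-lymphoid cells with endogenous VPAC2 (RPMI 1640, 25 mM HEPES, 10% FBS) were plated at 4×10^4 cells/well and exposed to compound for 5 min at room temperature. After lysis, cAMP was measured by enzyme immunoassay. EC50 came from a sigmoidal fit of 7-concentration dose-response data.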

Data set [4] relates to LPS-induced lung inflammation in male C57BL/6 mice. In words: LPS-induced lung inflammation in male C57BL/6 mice (BAL neutrophilia). It is filed as in vivo. To be noted: Dose 0.01%, BAL fluid neutrophilia.
The target of data set [5] is T3, VPAC2 receptor (human, UniProt P41587).
T3 sequence: T2 sequence (P41587 24-438)
The experiment in a line: cell-based or functional assay.

Bridge positions count the residues as written; N and C are the ends. Square brackets hold non-standard residues; d marks the D form. Peptide text beside a SMILES is read from it. ξ: configuration not given here. Thr(3ξ) = CC(O)[C@H](N)C(=O)O; αMeV = CC(C)[C@](C)(N)C(=O)O; Nle = CCCC[C@H](N)C(=O)O

As usually defined, the EC50 is the concentration that produces a half-maximal response. Turning to `CCCC[C@H](NC(=O)[C@H](CCC(N)=O)NC(=O)[C@H](CCCCN)NC(=O)[C@H](CCCNC(=N)N)NC(=O)[C@H](CC(C)C)NC(=O)[C@H](CCCCN)NC(=O)[C@@H](NC(=O)[C@H](Cc1ccc(O)cc1)NC(=O)[C@H](CC(N)=O)NC(=O)[C@H](CCC(=O)O)NC(=O)[C@@H](NC(=O)[C@H](Cc1ccccc1)NC(=O)[C@@](C)(NC(=O)[C@H](C)NC(=O)[C@H](CC(=O)O)NC(=O)[C@H](CO)NC(=O)[C@H](Cc1c[nH]cn1)NC(C)=O)C(C)C)C(C)O)C(C)O)C(=O)N[C@@H](C)C(=O)N[C@@H](C)C(=O)N[C@@H](CCCCN)C(=O)N[C@H]1CCCCNC(=O)C[C@@H](C(=O)N[C@@H](CC(C)C)C(=O)N[C@@H](CCCCN)C(=O)N[C@@H](CCCCN)C(=O)NCC(=O)NCC(=O)N[C@H](C(N)=O)C(C)O)NC(=O)[C@H](CC(N)=O)NC(=O)[C@H](CC(C)C)NC(=O)[C@H](Cc2ccc(O)cc2)NC1=O` (stereo partly shown) [Example 6] (Ac-HSDA[αMeV]F[Thr(3ξ)]ENY[Thr(3ξ)]KLRKQ[Nle]AAKKYLNDLKKGG[Thr(3ξ)]-NH2; lactam 21-25), the “Inhibition of Penh at 5 minutes post-challenge” value (“Inhibition of Penh” below) in data set [1] is listed as “++ (++ <50%)”. Further, in data set [2], the Relative elastase stability amounted to 6. The EC50 at VPAC2 receptor [3] amounted to 2.35 nM. Further, in data set [4], the “Inhibition of LPS-induced neutrophilia” value is reported as “++ (++ >30%)”.

Regarding `CCCC[C@H](NC(=O)[C@H](CCC(N)=O)NC(=O)[C@H](CCCCN)NC(=O)[C@H](CCCNC(=N)N)NC(=O)[C@H](CC(C)C)NC(=O)[C@H](CCCCN)NC(=O)[C@@H](NC(=O)[C@H](Cc1ccc(O)cc1)NC(=O)[C@H](CC(N)=O)NC(=O)[C@H](CCC(=O)O)NC(=O)[C@@H](NC(=O)[C@H](Cc1ccccc1)NC(=O)[C@H](CO)NC(=O)[C@H](C)NC(=O)[C@H](CC(=O)O)NC(=O)[C@H](C)NC(=O)[C@H](Cc1c[nH]cn1)NC(C)=O)C(C)O)C(C)O)C(=O)N[C@@H](C)C(=O)N[C@@H](C)C(=O)N[C@@H](CCCCN)C(=O)N[C@H]1CCCCNC(=O)C[C@@H](C(=O)N[C@@H](CC(C)C)C(=O)N[C@@H](CCCCN)C(=O)N[C@@H](CCCCN)C(=O)NCC(=O)NCC(=O)N[C@H](C(N)=O)C(C)O)NC(=O)[C@H](CC(N)=O)NC(=O)[C@H](CC(C)C)NC(=O)[C@H](Cc2ccc(O)cc2)NC1=O` (stereo partly shown) [Example 12] (Ac-HADASF[Thr(3ξ)]ENY[Thr(3ξ)]KLRKQ[Nle]AAKKYLNDLKKGG[Thr(3ξ)]-NH2; lactam 21-25), the “Inhibition of Penh” value in data set [1] is on record as “+ (+ >50%)”. Besides, the Relative elastase stability in data set [2] is recorded as 5.2. Further, the EC50 at VPAC2 receptor [3] was 7.4 nM. Moreover, the “Inhibition of LPS-induced neutrophilia” value in data set [4] was “+ (+ 10-30%)”.

Take `CCCC[C@H](NC(=O)[C@H](CCCNC(=N)N)NC(=O)[C@H](CCCCN)NC(=O)[C@H](CCCNC(=N)N)NC(=O)[C@H](CC(C)C)NC(=O)[C@H](CCCCN)NC(=O)[C@@H](NC(=O)[C@H](Cc1ccc(O)cc1)NC(=O)[C@H](CC(N)=O)NC(=O)[C@H](CCC(=O)O)NC(=O)[C@@H](NC(=O)[C@H](Cc1ccccc1)NC(=O)[C@H](CO)NC(=O)[C@H](C)NC(=O)[C@H](CC(=O)O)NC(=O)[C@H](C)NC(=O)[C@H](Cc1c[nH]cn1)NC(C)=O)C(C)O)C(C)O)C(=O)N[C@@H](CCCCN)C(=O)N[C@@H](C)C(=O)N[C@@H](CCCCN)C(=O)N[C@H]1CCCCNC(=O)C[C@@H](C(=O)N[C@@H](CC(C)C)C(=O)N[C@@H](CCCCN)C(=O)N[C@@H](CCCCN)C(=O)NCC(=O)NCC(=O)N[C@H](C(N)=O)C(C)O)NC(=O)[C@H](CC(N)=O)NC(=O)[C@H](CC(C)C)NC(=O)[C@H](Cc2ccc(O)cc2)NC1=O` (stereo partly shown) [Example 18] (Ac-HADASF[Thr(3ξ)]ENY[Thr(3ξ)]KLRKR[Nle]KAKKYLNDLKKGG[Thr(3ξ)]-NH2; lactam 21-25): the “Inhibition of Penh” value in data set [1] was “+ (+ >50%)”. The Relative elastase stability in data set [2] is on record as 5.1. Also, the EC50 on VPAC2 receptor [3] was 276 nM.

On to `CCCC[C@H](NC(=O)[C@H](CCCNC(=N)N)NC(=O)[C@H](CCCCN)NC(=O)[C@H](CCCNC(=N)N)NC(=O)[C@H](CC(C)C)NC(=O)[C@H](CCCCN)NC(=O)[C@@H](NC(=O)[C@H](Cc1ccc(O)cc1)NC(=O)[C@H](CC(N)=O)NC(=O)[C@H](CCC(=O)O)NC(=O)[C@@H](NC(=O)[C@H](Cc1ccccc1)NC(=O)[C@H](CO)NC(=O)[C@H](C)NC(=O)[C@H](CC(=O)O)NC(=O)[C@H](CO)NC(=O)[C@H](Cc1c[nH]cn1)NC(C)=O)C(C)O)C(C)O)C(=O)N[C@@H](CCC(=O)O)C(=O)N[C@@H](C)C(=O)N[C@@H](CCCCN)C(=O)N[C@H]1CCCCNC(=O)C[C@@H](C(=O)N[C@@H](CC(C)C)C(=O)N[C@@H](CC(C)C)C(=O)N[C@@H](CCCCN)C(=O)NCC(=O)NCC(=O)N[C@H](C(N)=O)C(C)O)NC(=O)[C@H](CC(N)=O)NC(=O)[C@H](CC(C)C)NC(=O)[C@H](Cc2ccc(O)cc2)NC1=O` (stereo partly shown) [Example 19] (Ac-HSDASF[Thr(3ξ)]ENY[Thr(3ξ)]KLRKR[Nle]EAKKYLNDLLKGG[Thr(3ξ)]-NH2; lactam 21-25), for which the “Inhibition of Penh” value in data set [1] was “+ (+ >50%)”. In addition, the Relative elastase stability in data set [2] worked out at 3.3. Also, the EC50 at VPAC2 receptor [3] was 68.4 nM. For the same molecule, the “Inhibition of LPS-induced neutrophilia” value in data set [4] was “+ (+ 10-30%)”.

B1: Ac-His-Ala-Asp-Ala-MeVal-Phe-Thr-Glu-Asn-Tyr-Thr-Lys-Leu-Arg-Lys-Gln-Nle-Ala-Ala-Lys-Lys-Tyr-Leu-Asn-Asp-Leu-Leu-Lys-Gly-Gly-Thr-NH2 (peptide)
peptide: Ac-HADA[αMeV]FTENYTKLRKQ[Nle]AAKKYLNDLLKGGT-NH2
modifications: lactam 21-25
SMILES: CCCC[C@H](NC(=O)[C@H](CCC(N)=O)NC(=O)[C@H](CCCCN)NC(=O)[C@H](CCCNC(=N)N)NC(=O)[C@H](CC(C)C)NC(=O)[C@H](CCCCN)NC(=O)[C@@H](NC(=O)[C@H](Cc1ccc(O)cc1)NC(=O)[C@H](CC(N)=O)NC(=O)[C@H](CCC(=O)O)NC(=O)[C@@H](NC(=O)[C@H](Cc1ccccc1)NC(=O)[C@@](C)(NC(=O)[C@H](C)NC(=O)[C@H](CC(=O)O)NC(=O)[C@H](C)NC(=O)[C@H](Cc1c[nH]cn1)NC(C)=O)C(C)C)[C@@H](C)O)[C@@H](C)O)C(=O)N[C@@H](C)C(=O)N[C@@H](C)C(=O)N[C@@H](CCCCN)C(=O)N[C@H]1CCCCNC(=O)C[C@@H](C(=O)N[C@@H](CC(C)C)C(=O)N[C@@H](CC(C)C)C(=O)N[C@@H](CCCCN)C(=O)NCC(=O)NCC(=O)N[C@H](C(N)=O)[C@@H](C)O)NC(=O)[C@H](CC(N)=O)NC(=O)[C@H](CC(C)C)NC(=O)[C@H](Cc2ccc(O)cc2)NC1=O
For B1, the “Sup-T1 cAMP EC50” value with VPAC2 receptor [5] is 4.07 nM.
